Laboratory results reported in ChEMBL document CHEMBL1201862, “PubChem BioAssay data set” (2004).
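48-hour exposure; five concentrations; linearly interpolated endpoints. GI50 = concentration required for 50% inhibition of growth.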 The source made the active and inactive calls. Cut-off read from the data, not from the text of the source: active = GI50 up to about 1.1 µM and inactive = higher.

Columns and labels:
Experiment in all cases: DTP human tumour cell line panel, 48 h
MDA-MB-231 = test system: MDA-MB-231
BT-549 = test system: BT-549
Hs-578T = test system: Hs-578T
XF498 = test system: XF498
SNB-78 = test system: SNB-78
LXFL 529 = test system: LXFL 529
M19-MEL = test system: M19-MEL
HOP-18 = test system: HOP-18

Structure (SMILES)	GI50 (MDA-MB-231)	GI50 (BT-549)	GI50 (Hs-578T)	GI50 (XF498)	GI50 (SNB-78)	GI50 (LXFL 529)	GI50 (M19-MEL)	GI50 (HOP-18)
Cn1c2ccccc2n2c(=O)c(-c3ccc(O)cc3)nnc12	31.2 µM (inactive)	56 µM (inactive)	34.8 µM (inactive)	–	–	–	–	–
[O-]c1c2c(nn1-c1ccc(F)cc1)c1ccccc1c[n+]2Cc1ccccc1	–	–	–	19.2 µM (inactive)	1.96 µM (inactive)	0.448 µM (active)	–	–
O=C1c2ccccc2-c2nnc(-c3ccc(Cl)cc3)cc21	> 10 µM (inactive)	> 10 µM (inactive)	> 10 µM (inactive)	–	–	–	–	–
CCSC(=O)N1c2ccc(OC)cc2C=CC1C#N (configuration not stated)	0.00589 µM (active)	< 0.01 µM (active)	0.36 µM (active)	< 0.01 µM (active)	51.8 µM (inactive)	< 0.01 µM (active)	< 0.01 µM (active)	–
CN(C)c1ccc(C=c2c3ccccc3n3c2c2ccccc2[n+]3C)cc1	0.877 µM (active)	0.274 µM (active)	0.635 µM (active)	–	–	–	–	–
CC1CCCCNC1=S (configuration not stated)	> 10 µM (inactive)	> 10 µM (inactive)	> 10 µM (inactive)	–	–	–	–	–
Cn1c2ccccc2n2c(=O)c3cc([N+](=O)[O-])ccc3c(C#N)c12	–	> 100 µM (inactive)	> 100 µM (inactive)	–	–	–	–	–
CC(=O)NC1C(OCc2ccccc2)OC(CO)C(O)C1OC(C)C(=O)N[C@@H](C)C(=O)N[C@H](CCC(=O)OCCNc1c2ccccc2nc2cccc([N+](=O)[O-])c12)C(N)=O (some centres not stated)	–	–	–	–	0.0252 µM (active)	0.000622 µM (active)	–	0.000354 µM (active)
O=C1/C(=C/c2cccc([N+](=O)[O-])c2)N=C(c2ccccc2)N1c1nc2ccc(Sc3ccccc3)cc2[nH]1	93.1 µM (inactive)	88.7 µM (inactive)	35.5 µM (inactive)	–	–	–	–	–
NC(CCCCNC(=O)C(Cc1ccccc1)NC(=O)OCc1ccccc1)C(=O)NC(CCCCNC(=O)C(Cc1ccccc1)NC(=O)OCc1ccccc1)C(=O)NC(CCCCNC(=O)C(Cc1ccccc1)NC(=O)OCc1ccccc1)C(=O)NC(CCCCNC(=O)C(Cc1ccccc1)NC(=O)OCc1ccccc1)C(=O)NC(CCCCNC(=O)C(Cc1ccccc1)NC(=O)OCc1ccccc1)C(=O)NC(CCCCNC(=O)C(Cc1ccccc1)NC(=O)OCc1ccccc1)C(=O)O (configuration not stated)	> 100 µM (inactive)	> 100 µM (inactive)	–	–	–	–	–	–
O=P(O)(Cc1ccccc1)c1ccccc1-c1ccccc1	> 100 µM (inactive)	> 100 µM (inactive)	> 100 µM (inactive)	–	–	–	–	–
Cc1nc2nnc(CCCCCCCCc3nnc4nc(C)[nH]n34)n2[nH]1	> 100 µM (inactive)	> 100 µM (inactive)	–	–	–	–	–	–
COc1ccc(OC)c(C2CCc3nc4nc(N)nc(N)c4cc3C2)c1 (configuration not stated)	2.35 µM (inactive)	6.9 µM (inactive)	3.75 µM (inactive)	–	–	–	–	–
O=C1/C(=C\c2ccccc2)c2ccccc2N1Cc1ccccc1	6.89 µM (inactive)	3.61 µM (inactive)	5.14 µM (inactive)	–	–	–	–	–
[N-]=[N+]=NC[C@H]1OCO[C@H](CN=[N+]=[N-])[C@H]2OCCOCCOc3ccccc3OCCOCCO[C@@H]21	> 100 µM (inactive)	> 100 µM (inactive)	> 100 µM (inactive)	–	–	–	–	–
CO[C@@H]1C[C@H]2[C@@H]3CC[C@H]([C@H](C)CO)[C@@]3(C)CC[C@@H]2[C@@]2(C)CC[C@H]3C[C@]312	31.6 µM (inactive)	13.3 µM (inactive)	43.4 µM (inactive)	–	–	–	–	–
C=C1CC2CCCC12C=O (configuration not stated)	> 10 µM (inactive)	> 10 µM (inactive)	> 10 µM (inactive)	–	–	–	–	–
O=c1[nH]c(-c2ccc([N+](=O)[O-])cc2)nc2ccc(Cl)cc12	–	–	–	–	> 100 µM (inactive)	44.2 µM (inactive)	> 100 µM (inactive)	–
O=c1nc2n(c3nsnc13)CCO2	–	–	–	> 100 µM (inactive)	–	> 100 µM (inactive)	> 100 µM (inactive)	–

Structure (SMILES)	GI50 (MDA-MB-231)	GI50 (BT-549)	GI50 (Hs-578T)	GI50 (XF498)	GI50 (SNB-78)	GI50 (LXFL 529)	GI50 (M19-MEL)	GI50 (HOP-18)
CSc1nc2c(ncn2C2OC(CO)C(O)C(O)C2O)c(=O)n1C (configuration not stated)	–	–	–	> 100 µM (inactive)	> 100 µM (inactive)	–	> 100 µM (inactive)	> 88.9 µM (inactive)
COC(OC)(c1ccccc1)C(Br)Br	74.5 µM (inactive)	> 100 µM (inactive)	78 µM (inactive)	–	–	–	–	–
CC1(C)OC2C(CO)OC(N/C(=N/C#N)Oc3ccccc3)C2O1 (configuration not stated)	–	–	–	> 100 µM (inactive)	> 100 µM (inactive)	> 100 µM (inactive)	> 100 µM (inactive)	–
CCOC(=O)CC[C@H](NC(=O)N[C@H](C)c1ccccc1)C(=O)OCC	28.6 µM (inactive)	> 100 µM (inactive)	–	–	–	–	–	–
O=C1CS(=O)(=O)C(c2cccc(Oc3ccccc3)c2)N1c1ccccc1 (configuration not stated)	19.9 µM (inactive)	20.1 µM (inactive)	28.4 µM (inactive)	–	–	–	–	–
CN(CCNC(=O)c1c[nH]c2c1Cc1ccccc1-2)CCNC(=O)c1c[nH]c2c1Cc1ccccc1-2	28.6 µM (inactive)	36.6 µM (inactive)	35.3 µM (inactive)	–	–	–	–	–
NS(=O)(=O)c1ccc(NNc2c3ccccc3nc3c(C(=O)Nc4ccc(S(=O)(=O)Nc5ncccn5)cc4)cccc23)cc1	> 25 µM (inactive)	> 25 µM (inactive)	> 25 µM (inactive)	–	–	–	–	–
C=C(Br)CN(C#N)CC(=C)Br	> 100 µM (inactive)	–	> 100 µM (inactive)	–	–	–	–	–
Cn1c(=O)c2ccccc2c2nc3ccccc3nc21	–	–	–	–	68.7 µM (inactive)	> 100 µM (inactive)	> 100 µM (inactive)	–
O=C1CC(CC(O)[C@@H]2CCCC[C@@H]2O)CC(=O)N1c1ccccc1 (some centres not stated)	> 100 µM (inactive)	> 100 µM (inactive)	> 100 µM (inactive)	–	–	–	–	–
O=c1n(C2CCCCC2)c(=C(Cl)Cl)c(=C(Cl)Cl)n1C1CCCCC1	–	–	–	> 100 µM (inactive)	85.1 µM (inactive)	–	> 100 µM (inactive)	> 100 µM (inactive)
NNC(=O)c1c(SCc2ccccc2)nc2c3ccccc3ccn12	29.4 µM (inactive)	21.4 µM (inactive)	80.4 µM (inactive)	–	–	–	–	–
c1csc(-c2ccsc2-c2ccsc2)c1	> 100 µM (inactive)	> 100 µM (inactive)	90.2 µM (inactive)	–	–	–	–	–
CO[C@H]1C=CO[C@@]2(C)Oc3c(C)c(O)c4c(O)c(c(CN5CCN(C)CC5)c(O)c4c3C2=O)NC(=O)/C(C)=C\C=C[C@H](C)[C@H](O)C(C)[C@@H](O)C(C)[C@H](OC(C)=O)[C@@H]1C (some centres not stated)	34.4 µM (inactive)	45.9 µM (inactive)	> 100 µM (inactive)	–	–	–	–	–
NCCC1([N+](=O)[O-])C=CN=CC1 (configuration not stated)	> 100 µM (inactive)	> 100 µM (inactive)	> 100 µM (inactive)	–	–	–	–	–
CCC1CN(C(=O)c2ccccc2)C(Cc2c[nH]c3ccccc23)C(=O)C1CC(=O)OC (configuration not stated)	–	> 100 µM (inactive)	51.8 µM (inactive)	–	–	–	–	–
C#Cc1ccccc1C(=O)OC	–	–	–	> 100 µM (inactive)	–	–	–	> 100 µM (inactive)
CN1CCCC2[C@@H]3CCC4c5nonc5CC[C@]4(C)C3CC[C@@]21C (some centres not stated)	–	–	–	24.4 µM (inactive)	> 100 µM (inactive)	84.7 µM (inactive)	63.8 µM (inactive)	> 100 µM (inactive)
COc1ccccc1CNCc1nc2ccccc2[nH]1	> 100 µM (inactive)	> 100 µM (inactive)	> 100 µM (inactive)	–	–	–	–	–

Structure (SMILES)	GI50 (MDA-MB-231)	GI50 (BT-549)	GI50 (Hs-578T)	GI50 (XF498)	GI50 (SNB-78)	GI50 (LXFL 529)	GI50 (M19-MEL)	GI50 (HOP-18)
CCOCC(=O)N[C@H]1CCc2cc(OC(=O)COCC)c(OC)c(OC)c2-c2ccc(SC)c(=O)cc21	0.0274 µM (active)	0.0752 µM (active)	0.0122 µM (active)	–	–	–	–	–
Cc1ccc(S(=O)(=O)N(CCN)c2cc3c4c(c2)Oc2cccc5c2C4c2c(cccc2O3)O5)cc1	17.9 µM (inactive)	47.2 µM (inactive)	17 µM (inactive)	–	–	–	–	–
Cc1cc(O)cc(O)c1/N=N/c1ccc([N+](=O)[O-])cc1	14.8 µM (inactive)	15 µM (inactive)	27.5 µM (inactive)	–	–	–	–	–
Cn1c(SCc2c[nH]c3ccccc23)nnc1-c1ccc(Cl)cc1Cl	10.5 µM (inactive)	18.3 µM (inactive)	19.7 µM (inactive)	–	–	–	–	–
Cc1cccc(-c2cc(=S)c3cc(N4CCCC4)ccc3[nH]2)c1	> 100 µM (inactive)	–	> 100 µM (inactive)	–	–	–	–	–
CCOC(=O)C1=C(O)C2C3CC4C2C(O)=C(C(=O)OCC)C2C1C3C42 (configuration not stated)	> 100 µM (inactive)	> 100 µM (inactive)	> 100 µM (inactive)	–	–	–	–	–
CC1CCC2(CC1)NN=c1s/c(=C\c3ccc(O)cc3)c(=O)n1N2 (configuration not stated)	–	–	–	> 100 µM (inactive)	> 100 µM (inactive)	> 100 µM (inactive)	> 100 µM (inactive)	> 100 µM (inactive)
O=NN1C(c2ccccc2)C2CCCC(C2=O)C1c1ccccc1 (configuration not stated)	–	–	–	13.6 µM (inactive)	40.3 µM (inactive)	–	18.9 µM (inactive)	8.73 µM (inactive)
Cc1nn(C(=O)Cc2ccccc2)c2c1C(c1ccc3ccccc3c1O)SC(=N)N2 (configuration not stated)	> 100 µM (inactive)	> 100 µM (inactive)	> 100 µM (inactive)	–	–	–	–	–
CN1CCOC1(C)CO (configuration not stated)	> 100 µM (inactive)	> 100 µM (inactive)	> 100 µM (inactive)	–	–	–	–	–
CCC(C)[C@@H](NC1=C(Cl)C(=O)c2c(O)ccc(O)c2C1=O)C(=O)OC (some centres not stated)	2.52 µM (inactive)	3.43 µM (inactive)	> 10 µM (inactive)	–	–	–	–	–
O=[N+]([O-])c1ccc(/C=C/c2ccc(/N=N/c3ccc(/C=C/c4ccc([N+](=O)[O-])cc4S(=O)(=O)O)c(S(=O)(=O)O)c3)cc2S(=O)(=O)O)c(S(=O)(=O)O)c1	–	–	–	> 78 µM (inactive)	> 83.6 µM (inactive)	–	> 100 µM (inactive)	> 74.6 µM (inactive)
CC(NNC(=O)c1cc[n+]([BH2-]C#N)cc1)c1cccc(F)c1 (configuration not stated)	> 100 µM (inactive)	> 100 µM (inactive)	> 100 µM (inactive)	–	–	–	–	–
CCCC1CCC(=C2C(=O)CCC2=O)O1 (configuration not stated)	> 100 µM (inactive)	> 100 µM (inactive)	> 100 µM (inactive)	–	–	–	–	–
CN(CCCCCl)P(=O)(OCc1ccc([N+](=O)[O-])o1)OC[C@H]1O[C@@H](n2cc(F)c(=O)[nH]c2=O)C[C@@H]1O (some centres not stated)	12.9 µM (inactive)	2.84 µM (inactive)	0.514 µM (active)	–	–	–	–	–
C[O+]=C1C=CC(=C2SC(c3ccccc3)(c3ccccc3)c3ccccc32)C=C1.[O-][Cl+3]([O-])([O-])[O-]	18.5 µM (inactive)	24.7 µM (inactive)	18.6 µM (inactive)	–	–	–	–	–
Oc1ccc2ccccc2c1Cc1c(O)ccc2ccccc12	18.2 µM (inactive)	16.9 µM (inactive)	14.2 µM (inactive)	–	–	–	–	–
C=C1CC(Cn2cc(C)c(=O)[nH]c2=O)(c2ccc(-c3ccccc3)cc2)OC1=O (configuration not stated)	2.22 µM (inactive)	1.46 µM (inactive)	6.55 µM (inactive)	–	–	–	–	–
Nc1nc2[nH]c(=O)cnc2c(=O)[nH]1 [ISOXANTHOPTERIN]	–	–	–	10.6 µM (inactive)	> 125 µM (inactive)	–	> 85.1 µM (inactive)	> 5.81 µM (inactive)
